According to patent US10077289B2, “Cyclosporins modified on the MeBmt sidechain by heterocyclic rings” (priority 2015, dated 2018):
Converted amounts (≈) assume the structure as drawn. Where two headings read alike, the source gives them in different places.

Legend:
[1] = Water Solubility Assay (measured in pH 7.8 buffer); assay type: physicochemical; settings: 25 °C, kinetic from dmso stock
Method: Water Solubility Assay (Measured in pH 7.8 Buffer)
The aqueous solubility of a compound of Formula I in buffer (pH 7.8) was measured by recording the onset of precipitation of the compound as a function of increasing concentration. The onset of precipitation, if it occurred, was detected by an increase in absorbance at 650 nm.
Assay Buffer: 35 mM HEPES pH 7.8
Stock solutions of Control and Test Compounds: 10 mM in 100% DMSO.
10 mM stock solutions of control and test compounds were prepared in 100% DMSO.
Assay buffer (247.5 μl) was placed into flat bottomed transparent 96-well plate. For blank samples DMSO (2.5 μl) was added. For test and control samples 2.5 μl of the appropriate DMSO dilution stocks were added to the appropriate well. All test and control compounds were performed in triplicate.
The plates were sealed with adhesive plate seal and shaken at 250 rpm at 25° C. for 18 h on a plate shaker. After incubation the plate seals were taken off and any bubbles observed in wells removed. The plates were read on a SpectraMaxM5 with a 5 s pre-shake at 650 nm. Data files were transferred to the appropriate worksheet and the solubility range of the compounds was calculated from the data. The values shown in the Tables indicate the concentration in μM (micromolar) at which the compound remains in solution.

[2] = target: Human recombinant cyclophilin A (Cyp A) (Homo sapiens (Human), UniProt P62937); test: Protease-free PPIase assay
Method: Protease-Free PPIase Assay
The protease-free PPIase assay measures the rate of cis to trans conversion of a peptide substrate catalyzed by the enzyme cyclophilin A. Addition of a cyclophilin A inhibitor (e.g., a test compound) slows the catalyzed rate and a Ki value is obtained.
35 mM HEPES pH 7.8, filtered through a 0.2 μm filter. 50 μM DTT was added prior to use each day and then the buffer was stored on ice.
Human recombinant cyclophilin A (Cyp A) (Sigma C3805) enzyme was diluted to 1 μM with enzyme dilution buffer (20 mM HEPES pH 7.8, 40% glycerol, 50 μM DTT and 1 μM BSA) and stored at −20° C.
Succinimide-Ala-Ala-Pro-Phe-p-nitroanilide (SUC-AAPF-pNA) (from Bachem AG, L-1400), 20 mg/ml prepared in 0.5 M LiCl in trifluoroethanol.
The temperature is monitored by the use of a temperature probe. To prevent UV degradation of test compounds, the light below 290 nm was blocked using a glass slide in the light path. 1.5 ml of the assay buffer was put into a 3 ml quartz cuvette and cooled to 10.0±0.1° C. while stirring (vigorous but not so fast as to produce cavitation). The inhibitor was diluted in 100% DMSO, and then added to the assay to a maximum final concentration of 0.5% DMSO in the assay. A blank spectrum was obtained, then 3 μL of enzyme was added (2 nM final concentration) and then 3 μL substrate (60 μM final concentration) added. The absorbance was measured at 330 nm for 300 s or 500 s for blank runs (NOTE: the substrate must be added in one quick injection and the measurements started immediately to minimize mixing errors).
A first order rate equation was fitted to the absorbance data, for each concentration of inhibitor, to obtain the rate constant (the first 10 to 15 seconds were excluded as mixing causes errors in this portion of curve). The catalytic rate was calculated from the enzymatic rate constant minus the background rate constant. An exponential curve was generated using the catalytic rate constants versus the inhibitor concentration to obtain the Ki value for the inhibitor. The Ki value is indicative of the binding affinity between the test compound and cyclophilin A.

[3] = target: calcineurin/cyclophilin A (Homo sapiens (Human), UniProt P62937+P63098+Q08209); test: Calcineurin Phosphatase (CaN) Assay (+CypA); assay type: biochemical
From the text: Calcineurin Phosphatase (CaN) Assay
The calcineurin phosphatase assay is a means for estimating the immunosuppressive potential of a test compound. Calcineurin is a serine-threonine protein phosphatase that on activation dephosphorylates members of the nuclear factor of activated T cells (NFAT), which are important in T lymphocyte activation.
To investigate the immunosuppressive potential of exemplary compounds of Formula I, which are cyclosporin analogs, their ability to inhibit calcineurin activity was measured in the presence and absence of Cyp A.
The CaN assay kit used is based on a colorimetric assay for measuring calcineurin phosphatase activity, and it is commercially available (Enzo Life Sciences and Calbiochem). Calmodulin is also required for calcineurin activity and RII phosphopeptide is used as an efficient peptide substrate for calcineurin. […] The detection of free phosphate released is based on the classic Malachite green assay.
Enzo Life Sciences CaN Assay Kit: BML-AK804
Malachite Green: BIOMOL Green™ reagent
Calmodulin (Human, recombinant): was thawed on ice, diluted 1:50 with 2× assay buffer, and then stored on ice.
Calcineurin: was thawed quickly, stored on ice immediately, diluted 1:12.5 with 1× assay buffer, and then stored on ice.
R-II Substrate: 915 μL ultrapure water (UPW) was added to the 1.5 mg vial substrate to give a final concentration of 0.75 mM.
Inhibitors: 2.5 mM inhibitor in 100% DMSO.
Cyp A: recombinant human CypA (Sigma C3805), 1 mg/ml; Recombinant 6-His tagged CypA prepared by the University of Edinburgh was also used.
Inhibitor dilutions: inhibitor compounds were diluted in UPW in polypropylene low-binding 96 well plates at 5× the final assay concentration.
Assay Setup: using the half area 96 well plates supplied with the kit, 10 μl UPW was added to duplicate wells to provide the non-inhibited control. 10 μl of the inhibitor or the inhibitor/Cyp A complex was added to the appropriate sample wells. 25 μl of the 2× assay buffer with CaM was added to all wells, then 5 μl of CaN was added to all wells (40 U per well final concentration) except duplicate ‘no calcineurin blank’ wells to which 5 μL 1× assay buffer was added. The assay plate was placed in an oven at 30° C. for 15 minutes to equilibrate to the reaction temperature. The reaction was started by the addition of 10 μl RII-peptide (0.15 mM final concentration). The reaction was allowed to proceed at 30° C. for a time period in which the reaction is linear for about 60 minutes. The reaction was then terminated by adding 100 μl of the Malachite Green reagent. The color was allowed to develop for 15-30 minutes at room temperature before the absorbance at 620 nm was measured using a plate reader (Molecular Devices—SpectraMax M5). The data were analyzed by subtracting ‘no Calcineurin blank’ from all the absorbance readings and plotting the background corrected absorbances against Log10 inhibitor concentration. A sigmoidal-dose response curve was fitted to the data using GraphPad Prism Software.
It exerts its immunosuppressive activity by binding to cyclophilin A to form a complex, which then binds to calcineurin and thereby inhibits calcineurin activity.

[4] = in the presence of Cyp A, 1:1 complex with inhibitor, read-out: Calcineurin Phosphatase (CaN) Assay (+CypA) IC50
[5] = 35 mM HEPES buffer pH 7.8, aqueous buffer, 35 mM HEPES pH 7.8, 1% DMSO, 18 h, read-out: Water Solubility Assay, concentration at which the compound remains in solution
[6] = read-out: Protease-free PPIase Assay Ki, human recombinant Cyp A, 10 °C

Row | solubility at 18 h ([1]; pH 7.8, aqueous buffer) [µM] | Ki [2] [µM] | Structure (SMILES) | IC50 [3, 4] [µM] | solubility at 18 h [1, 5] [µM] | Ki [2, 6] [µM] | IC50 [3] [µM]
1 | 75 to 100 (≈ 94.3 to 126 µg/mL) | 0.015 | CC[C@H]1NC(=O)[C@@H]([C@H](O)[C@H](C)Cc2nccn2C)N(C)C(=O)[C@@H](C(C)C)N(C)C(=O)[C@@H](CC(C)C)N(C)C(=O)[C@@H](CC(C)C)N(C)C(=O)[C@H](C)NC(=O)[C@@H](C)NC(=O)[C@@H](CC(C)C)N(C)C(=O)[C@@H](C(C)C)NC(=O)[C@H](CC(C)C)N(C)C(=O)[C@@H](C)N(C)C1=O [Compound 1, [(2S,3R,4R)-3-Hydroxy-4-methyl-2-(methylamino)-5-(1-methyl-1H-imidazol-2-yl)-pentanoic acid]^1 [(R)-methyl-Sar]^3 cyclosporin A] | 2.7 | – | – | –
2 | – | – | CC[C@H]1NC(=O)[C@@H]([C@H](O)[C@H](C)Cc2nccn2CCN2CCOCC2)N(C)C(=O)[C@@H](C(C)C)N(C)C(=O)[C@@H](CC(C)C)N(C)C(=O)[C@@H](CC(C)C)N(C)C(=O)[C@H](C)NC(=O)[C@@H](C)NC(=O)[C@@H](CC(C)C)N(C)C(=O)[C@@H](C(C)C)NC(=O)[C@H](CC(C)C)N(C)C(=O)[C@@H](C)N(C)C1=O [Compound 2, [(2S,3R,4R)-3-Hydroxy-4-methyl-2-(methylamino)-5-(1-(N-morpholino-ethyl)-1H-imidazol-2-yl)-pentanoic acid]^1 [(R)-methyl-Sar]^3 cyclosporin A] | – | > 100 | 0.0046 | > 10
3 | – | – | CC[C@H]1NC(=O)[C@@H]([C@H](O)[C@H](C)Cc2nccn2CCN2CCCC2)N(C)C(=O)[C@@H](C(C)C)N(C)C(=O)[C@@H](CC(C)C)N(C)C(=O)[C@@H](CC(C)C)N(C)C(=O)[C@H](C)NC(=O)[C@@H](C)NC(=O)[C@@H](CC(C)C)N(C)C(=O)[C@@H](C(C)C)NC(=O)[C@H](CC(C)C)N(C)C(=O)[C@@H](C)N(C)C1=O [Compound 3, [(2S,3R,4R)-3-Hydroxy-4-methyl-2-(methylamino)-5-(1-(N-pyrrolidinyl-ethyl)-1H-imidazol-2-yl)pentanoic acid]^1 [(R)-methyl-Sar]^3 cyclosporin A] | > 10 | > 100 | 0.0086 | –
4 | – | – | CC[C@H]1NC(=O)[C@@H]([C@H](O)[C@H](C)Cc2nccn2CCN(C)C)N(C)C(=O)[C@@H](C(C)C)N(C)C(=O)[C@@H](CC(C)C)N(C)C(=O)[C@@H](CC(C)C)N(C)C(=O)[C@H](C)NC(=O)[C@@H](C)NC(=O)[C@@H](CC(C)C)N(C)C(=O)[C@@H](C(C)C)NC(=O)[C@H](CC(C)C)N(C)C(=O)[C@@H](C)N(C)C1=O [Compound 4, [(2S,3R,4R)-5-(1-(N,N-Dimethyl-ethyl)-1H-imidazol-2-yl)-3-hydroxy-4-methyl-2-(methylamino)pentanoic acid]^1 [(R)-methyl-Sar]^3 cyclosporin A] | 6.9 | > 100 | 0.0051 | –
5 | – | – | CC[C@H]1NC(=O)[C@@H]([C@H](O)[C@H](C)Cc2nccn2CCC(F)(F)F)N(C)C(=O)[C@@H](C(C)C)N(C)C(=O)[C@@H](CC(C)C)N(C)C(=O)[C@@H](CC(C)C)N(C)C(=O)[C@H](C)NC(=O)[C@@H](C)NC(=O)[C@@H](CC(C)C)N(C)C(=O)[C@@H](C(C)C)NC(=O)[C@H](CC(C)C)N(C)C(=O)[C@@H](C)N(C)C1=O [Compound 8, [(2S,3R,4R)-3-Hydroxy-4-methyl-2-(methylamino)-5-[3-(3,3,3-trifluoro-propyl)-3H-imidazol-2-yl]-pentanoic acid]^1 [(R)-methyl-Sar]^3 cyclosporin A] | > 10 | – | 0.0074 | –
6 | 25 to 50 (≈ 32 to 63.9 µg/mL) | – | CC[C@H]1NC(=O)[C@@H]([C@H](O)[C@H](C)Cc2nc3ccccc3[nH]2)N(C)C(=O)[C@@H](C(C)C)N(C)C(=O)[C@@H](CC(C)C)N(C)C(=O)[C@@H](CC(C)C)N(C)C(=O)[C@H](C)NC(=O)[C@@H](C)NC(=O)[C@@H](CC(C)C)N(C)C(=O)[C@@H](C(C)C)NC(=O)[C@H](CC(C)C)N(C)C(=O)CN(C)C1=O [Compound 10, [(2S,3R,4R)-1-(1H-Benzimidazol-2-yl)-3-hydroxy-4-methyl-2-(methylamino)pentanoic acid]^1 cyclosporin A] | – | – | – | –
7 | – | 0.0015 | CC[C@H]1NC(=O)[C@@H]([C@H](O)[C@H](C)CCCc2ccc(F)cn2)N(C)C(=O)[C@@H](C(C)C)N(C)C(=O)[C@@H](CC(C)C)N(C)C(=O)[C@@H](CC(C)C)N(C)C(=O)[C@H](C)NC(=O)[C@@H](C)NC(=O)[C@@H](CC(C)C)N(C)C(=O)[C@@H](C(C)C)NC(=O)[C@H](CC(C)C)N(C)C(=O)[C@@H](C)N(C)C1=O [Compound 14, [(2S,3R,4R)-7-(5-Fluoro-pyridin-2-yl)-3-hydroxy-4-methyl-2-(methylamino)-heptanoic acid]^1 [(R)-methyl-Sar]^3 cyclosporin A] | 8.75 | – | – | –
8 | – | – | CC[C@H]1NC(=O)[C@@H]([C@H](O)[C@H](C)CCCc2cn3c(n2)CCCC3)N(C)C(=O)[C@@H](C(C)C)N(C)C(=O)[C@@H](CC(C)C)N(C)C(=O)[C@@H](CC(C)C)N(C)C(=O)[C@H](C)NC(=O)[C@@H](C)NC(=O)[C@@H](CC(C)C)N(C)C(=O)[C@@H](C(C)C)NC(=O)[C@H](CC(C)C)N(C)C(=O)[C@@H](C)N(C)C1=O [Compound 19] | – | – | 0.0054 | > 10
9 | > 100 | – | CC[C@H]1NC(=O)[C@@H]([C@H](O)[C@H](C)CCCc2ncco2)N(C)C(=O)[C@@H](C(C)C)N(C)C(=O)[C@@H](CC(C)C)N(C)C(=O)[C@@H](CC(C)C)N(C)C(=O)[C@H](C)NC(=O)[C@@H](C)NC(=O)[C@@H](CC(C)C)N(C)C(=O)[C@@H](C(C)C)NC(=O)[C@H](CC(C)C)N(C)C(=O)[C@@H](C)N(C)C1=O [Compound 24] | – | – | – | –
